Data reported in article PMC5296967, “Binding affinity of five PBPs to Ostrinia sex pheromones” (BMC Molecular Biology, 2017).
Where “and” joins values, the source holds several entries; their conditions need not be identical. Equal entries are not always repeated. Entries after “also recorded” stand apart in the source; their conditions may differ.

Tests used:
recombinant OfurPBP1 = recombinant OfurPBP1 (Ostrinia furnacalis, UniProt E7CC99); assay: Competitive fluorescence binding assay with 1-NPN probe, OfurPBP1; conditions: mean ± SE, dash = undetectable interaction; for Ki: pH 7.4, Ki = [IC50]/(1 + [1-NPN]/K1-NPN); for IC50: pH 7.4, displacement of 1-NPN
Method: (§1) The 1-NPN probe was excited at 337 nm, and emission spectra were recorded between 380 and 450 nm on a Shimadzu fluorescence spectrophotometer (Shimadzu, Japan). Each trial was run in triplicate, and Scatchard plots of the ratio of bound to unbound ligand were created using Microsoft Excel 2010. Competitive binding assays were performed with each of the OfurPBPs using 1-NPN as the probe. Assay reactions were comprised of 2 µM of each OfurPBP diluted individually in 2.0 ml 20 mM Tris–HCl, pH 7.4, which were then titrated with 1.0 mM increments sex pheromone diluted in methanol to a final concentrations of 1–6 µM. The synthetic standards that correspond to the sex pheromones of O. furnacalis, O. nubilalis and other lepidopteran species were purchased from Sigma-Aldrich (Shanghai, China; Additional file 2: S2). Excitation and emission spectra were recorded from triplicate assays as described above. The binding affinity of each purified OfurPBP to the different sex pheromones was measured by calculation of binding constants via competitive fluorescence-binding assay. In brief, relative fluorescent intensities were analyzed by GraphPad Prism 5 software (GraphPad Software Inc, La Jolla, CA) and calculation was done using the equation: Ki = [IC50]/(1 + [1-NPN]/K1-NPN), where [1-NPN] is the free concentration of 1-NPN and K1-NPN is the dissociation constant of the complex protein/1-NPN [19, 20]. Sex pheromone binding affinity with different PBPs was analyzed using One-way ANOVA in SAS 8.0 (SAS Institute Inc., Cary, NC, USA).

OfurPBP3 mutant M3: I52N = OfurPBP3 mutant M3: I52N (Ostrinia furnacalis, UniProt E7CCA1, I74N); assay: Competitive binding assay, OfurPBP3 mutant M3 I52N
Method: as §1
(§2) Four amino acids of OfurPBP3 with some of the most negative estimated E total values were mutated using Quick-change lightning site-directed mutagenesis kit (Stratagene, La Jolla, CA, USA); Ile to Asn at position 113 ([…]), m2 Phe to Ser at position 12 (F12S), m3 Ile to Asn at position 52 (I52N), and m4 […] to Arg at position 94 (I94R). The sequence of each primers used to alter the aforementioned sites by nucleotide mismatch are shown in Additional file 3: S3. After initial denaturation at 94 °C for 5 min, the subsequent PCR followed with 30 cycles of 94 °C for 30 s, 56 °C for 30 s, and final extension at 72 °C for 1 min. Changes within site-directed mutant fragments were verified by cloning into the pGEM-T Easy vector (Promega) by Sanger sequencing. All mutated OfurPBPs proteins were expressed and used within in vitro binding assays as described above.

recombinant OfurPBP5 = recombinant OfurPBP5 (Ostrinia furnacalis, UniProt E7CCA3); assay: Competitive fluorescence binding assay with 1-NPN probe, OfurPBP5; conditions: pH 7.4; for IC50 / Ki: OfurPBP5, mean ± SE, dash = undetectable interaction; for IC50: displacement of 1-NPN
Method: as §1

OfurPBP3 mutant M4: I94R = OfurPBP3 mutant M4: I94R (Ostrinia furnacalis, UniProt E7CCA1, L116R); assay: Competitive binding assay, OfurPBP3 mutant M4 I94R
Method: as §1, §2

recombinant OfurPBP2 = recombinant OfurPBP2 (Ostrinia furnacalis, UniProt E7CCA0); assay: Competitive fluorescence binding assay with 1-NPN probe, OfurPBP2; conditions: dash = undetectable interaction; for IC50: pH 7.4, displacement of 1-NPN, mean ± SE; for Ki: pH 7.4, mean ± SE
Method: as §1

recombinant OfurPBP3 = recombinant OfurPBP3 (Ostrinia furnacalis, UniProt E7CCA1); assay: Competitive fluorescence binding assay with 1-NPN probe, OfurPBP3 wild type; conditions: pH 7.4; for IC50 / Ki: OfurPBP3 wild type, mean ± SE, dash = undetectable interaction; for IC50: displacement of 1-NPN
Method: as §1

OfurPBP3 mutant M2: F12S = OfurPBP3 mutant M2: F12S (Ostrinia furnacalis, UniProt E7CCA1, F34S); assay: Competitive binding assay, OfurPBP3 mutant M2 F12S
Method: as §1, §2

[1] = tested on: OfurPBP3 mutants F12S, I52N, I94R, and I113N; assay: Competitive binding assay, statements on all OfurPBP3 mutants together; set-up: species or system Ostrinia furnacalis; conditions: for binding to all mutated OfurPBPs (in words): pH 7.4; for fold reduction in OfurPBP3 affinity caused by Ser12, Asn52, Arg94, Asn113 variants: range over the four mutants vs wild type
Method: as §1, §2

[2] = molecular target: OfurPBP3 mutant M1: I113N (Ostrinia furnacalis, UniProt E7CCA1, I135N); assay: Competitive binding assay, OfurPBP3 mutant M1 I113N; conditions: for fold reduction in affinity compared to wild-type OfurPBP3: mutant I113N vs wildtype
Method: as §1, §2

recombinant OfurPBP4 = recombinant OfurPBP4 (Ostrinia furnacalis, UniProt E7CCA2); assay: Competitive fluorescence binding assay with 1-NPN probe, OfurPBP4; conditions: pH 7.4; for IC50 / Ki: OfurPBP4, mean ± SE, dash = undetectable interaction; for IC50: displacement of 1-NPN
Method: as §1

[3] = tested on: OfurPBP1, OfurPBP2, OfurPBP3, OfurPBP4 and OfurPBP5; assay: Competitive binding assay, statements on all five OfurPBPs together; set-up: species or system Ostrinia furnacalis; conditions: pH 7.4
Method: as §1

PBPLma = molecular target: PBPLma; set-up: method as in PMID 12529170; conditions: read-out: binding affinities; cited from earlier work

Sequence of OfurPBP3 mutant M1: I113N (E7CCA1 entry or part of it I135N): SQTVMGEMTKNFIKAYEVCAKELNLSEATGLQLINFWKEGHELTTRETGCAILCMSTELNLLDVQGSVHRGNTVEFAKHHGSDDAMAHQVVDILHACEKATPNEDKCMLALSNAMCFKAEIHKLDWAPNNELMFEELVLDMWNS
Sequence of OfurPBP3 mutant M3: I52N (E7CCA1 entry or part of it I74N): as the sequence (E7CCA1 entry or part of it I135N) above, with I52N, N113I counted along it
Sequence of OfurPBP3 mutant M4: I94R (E7CCA1 entry or part of it L116R): as the sequence (E7CCA1 entry or part of it I135N) above, with L94R, N113I counted along it
Sequence of recombinant OfurPBP3 (E7CCA1 entry or part of it): as the sequence (E7CCA1 entry or part of it I135N) above, with N113I counted along it
Sequence of OfurPBP3 mutant M2: F12S (E7CCA1 entry or part of it F34S): as the sequence (E7CCA1 entry or part of it I135N) above, with F12S, N113I counted along it
Sequence of recombinant OfurPBP5 (E7CCA3 entry or part of it): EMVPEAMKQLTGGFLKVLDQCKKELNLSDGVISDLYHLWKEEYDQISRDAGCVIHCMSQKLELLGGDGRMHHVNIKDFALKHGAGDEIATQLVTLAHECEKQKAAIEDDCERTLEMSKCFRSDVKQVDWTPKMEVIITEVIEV
Sequence of recombinant OfurPBP1 (E7CC99 entry or part of it): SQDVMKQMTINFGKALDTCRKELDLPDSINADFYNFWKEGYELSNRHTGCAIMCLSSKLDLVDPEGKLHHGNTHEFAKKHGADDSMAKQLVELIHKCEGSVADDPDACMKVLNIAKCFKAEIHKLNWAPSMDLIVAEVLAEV
Sequence of recombinant OfurPBP4 (E7CCA2 entry or part of it): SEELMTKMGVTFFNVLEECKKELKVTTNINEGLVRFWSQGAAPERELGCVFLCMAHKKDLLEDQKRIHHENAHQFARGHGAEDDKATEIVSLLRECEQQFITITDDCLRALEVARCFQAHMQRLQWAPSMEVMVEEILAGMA
Sequence of recombinant OfurPBP2 (E7CCA0 entry or part of it): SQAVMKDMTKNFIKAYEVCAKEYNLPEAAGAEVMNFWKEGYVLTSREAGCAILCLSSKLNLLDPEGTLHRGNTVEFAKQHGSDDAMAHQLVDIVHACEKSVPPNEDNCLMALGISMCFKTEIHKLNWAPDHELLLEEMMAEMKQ

`CC/C=C/CCCCCCCCCCO` [E11-14:OH, (E)-11-Tetradecenol] showed a Ki (recombinant OfurPBP1) greater than 6 µM, an IC50 (recombinant OfurPBP1) greater than 6 µM and an IC50 (OfurPBP3 mutant M3: I52N) greater than 6 µM. The IC50 (recombinant OfurPBP5) was greater than 6 µM, the Ki (recombinant OfurPBP5) was greater than 6 µM and the IC50 (OfurPBP3 mutant M4: I94R) was greater than 6 µM. For the same molecule, the IC50 (recombinant OfurPBP2) was greater than 6 µM, the IC50 (recombinant OfurPBP3) was greater than 6 µM and the Ki (recombinant OfurPBP3) was greater than 6 µM. The “binding to wildtype OfurPBP3 (in words)” value (recombinant OfurPBP3) was “failed to demonstrate this function”, the IC50 (OfurPBP3 mutant M2: F12S) was greater than 6 µM and the “binding to all mutated OfurPBPs (in words)” value [1] was “weak binding affinity”. The IC50 [2] was greater than 6 µM, the IC50 (recombinant OfurPBP4) was greater than 6 µM and the Ki (recombinant OfurPBP4) was greater than 6 µM. For the same molecule, the “binding to all five OfurPBPs (in words)” value [3] was “weak or lack of detectable binding”.

Work on `C/C=C\CCCCCCCCCCCOC(C)=O` [Z12-14:OAc, (Z)-12-Tetradecenyl acetate] yielded a Ki (recombinant OfurPBP1) of 4.24 ± 0.82 µM, an IC50 (recombinant OfurPBP1) of 4.88 ± 0.94 µM and an IC50 (OfurPBP3 mutant M3: I52N) greater than 6 µM. For the same molecule, the IC50 (recombinant OfurPBP5) was greater than 6 µM, the “binding to OfurPBP5 (in words)” value (recombinant OfurPBP5) was “weakly” and the IC50 (OfurPBP3 mutant M4: I94R) was greater than 6 µM. For the same molecule, the IC50 (recombinant OfurPBP2) was 4.96 ± 0.23 µM, the Ki (recombinant OfurPBP2) was 4.19 ± 0.09 µM and the IC50 (recombinant OfurPBP3) was 3.83 ± 0.06 µM. The Ki (recombinant OfurPBP3) was 2.86 ± 0.04 µM, the IC50 (OfurPBP3 mutant M2: F12S) was greater than 6 µM and the “fold reduction in affinity compared to wild-type OfurPBP3” value (“fold reduction in affinity” for short) (OfurPBP3 mutant M2: F12S; mutant F12S vs wildtype) was ~ 2 fold. The “fold reduction in OfurPBP3 affinity caused by Ser12, Asn52, Arg94, Asn113 variants” value [1] was 1.7- to 4.6 fold, the IC50 [2] was greater than 6 µM and the “fold reduction in affinity” value [2] was ~ 2 fold. It also gave an IC50 (recombinant OfurPBP4) greater than 6 µM.

With `C/C=C/CCCCCCCCCCCOC(C)=O` [E12-14:OAc, (E)-12-Tetradecenyl acetate] the Ki (recombinant OfurPBP1) was 5.01 ± 0.14 µM, the IC50 (recombinant OfurPBP1) was 5.77 ± 0.16 µM and the IC50 (OfurPBP3 mutant M3: I52N) was greater than 6 µM. For the same molecule, the IC50 (recombinant OfurPBP5) was greater than 6 µM, the IC50 (OfurPBP3 mutant M4: I94R) was greater than 6 µM and the IC50 (recombinant OfurPBP2) was 4.88 ± 0.1 µM. The Ki (recombinant OfurPBP2) was 4.12 ± 0.08 µM, the IC50 (recombinant OfurPBP3) was 3.81 ± 0.02 µM and the Ki (recombinant OfurPBP3) was 2.85 µM and 2.84 µM. For the same molecule, the IC50 (OfurPBP3 mutant M2: F12S) was greater than 6 µM, the “fold reduction in OfurPBP3 affinity caused by Ser12, Asn52, Arg94, Asn113 variants” value [1] was 1.7- to 4.6 fold and the IC50 [2] was greater than 6 µM. The IC50 (recombinant OfurPBP4) was greater than 6 µM, the Ki (recombinant OfurPBP4) was greater than 6 µM and the “binding to OfurPBP4 (in words)” value (recombinant OfurPBP4) was “incapable of binding; also recorded: no detectable binding”.

In the case of `CC(=O)C(C)O` (centres unmarked) [3-hydroxy-butan-2-on], the Kd (PBPLma) is given as 3.8 µM.

With `CCCC/C=C\CCCCCCCCO` [Z9-14:OH, (Z)-9-Tetradecenol] the Ki (recombinant OfurPBP1) was greater than 6 µM, the IC50 (recombinant OfurPBP1) was greater than 6 µM and the IC50 (OfurPBP3 mutant M3: I52N) was greater than 6 µM. For the same molecule, the IC50 (recombinant OfurPBP5) was greater than 6 µM, the Ki (recombinant OfurPBP5) was greater than 6 µM and the IC50 (OfurPBP3 mutant M4: I94R) was greater than 6 µM. The IC50 (recombinant OfurPBP2) was greater than 6 µM, the Ki (recombinant OfurPBP2) was greater than 6 µM and the IC50 (recombinant OfurPBP3) was greater than 6 µM. The Ki (recombinant OfurPBP3) was greater than 6 µM, the “binding to wildtype OfurPBP3 (in words)” value (recombinant OfurPBP3) was “failed to demonstrate this function” and the IC50 (OfurPBP3 mutant M2: F12S) was greater than 6 µM. For the same molecule, the “binding to all mutated OfurPBPs (in words)” value [1] was “weak binding affinity”, the IC50 [2] was greater than 6 µM and the “binding to I113N (in words)” value ([2]; pH 7.4) was “ability to bind”. The IC50 (recombinant OfurPBP4) was greater than 6 µM, the Ki (recombinant OfurPBP4) was greater than 6 µM and the “binding to all five OfurPBPs (in words)” value [3] was “weak or lack of detectable binding”.

For `CC(O)C(C)O` (centres unmarked) [butane-2,3-diol], the Kd (PBPLma) is listed as 2.5 µM.

In the case of `CC/C=C\CCCCCCCCCCOC(C)=O` [Z11-14:OAc, (Z)-11-Tetradecenyl acetate], the Ki (recombinant OfurPBP1) is reported as 4.08 ± 0.12 µM, the IC50 (recombinant OfurPBP1) is reported as 4.69 ± 0.14 µM and the IC50 (OfurPBP3 mutant M3: I52N) is reported as greater than 6 µM. For the same molecule, the IC50 (recombinant OfurPBP5) was 3.64 ± 0.28 µM, the Ki (recombinant OfurPBP5) was 2.18 ± 0.17 µM and the IC50 (OfurPBP3 mutant M4: I94R) was greater than 6 µM. For the same molecule, the IC50 (recombinant OfurPBP2) was 3.49 ± 0.06 µM, the Ki (recombinant OfurPBP2) was 2.95 ± 0.05 µM and the IC50 (recombinant OfurPBP3) was 3.27 ± 0.24 µM. It also gave a Ki (recombinant OfurPBP3) of 2.44 ± 0.18 µM, an IC50 (OfurPBP3 mutant M2: F12S) greater than 6 µM and an IC50 [2] greater than 6 µM. The “fold reduction in affinity” value [2] was roughly 8.25 fold, the IC50 (recombinant OfurPBP4) was 1.18 ± 0.05 µM and the Ki (recombinant OfurPBP4) was 1.09 ± 0.05 µM. The “binding to all five OfurPBPs (in words)” value [3] was “relatively high affinities”.

For `CC/C=C/CCCCCCCCCCOC(C)=O` [E11-14:OAc, (E)-11-Tetradecenyl acetate], the Ki (recombinant OfurPBP1) was 4.61 ± 0.02 µM, the IC50 (recombinant OfurPBP1) was 5.3 ± 0.02 µM and the IC50 (OfurPBP3 mutant M3: I52N) was greater than 6 µM. For the same molecule, the IC50 (recombinant OfurPBP5) was 1.9 ± 0.07 µM, the Ki (recombinant OfurPBP5) was 1.14 ± 0.04 µM and the IC50 (OfurPBP3 mutant M4: I94R) was greater than 6 µM. The IC50 (recombinant OfurPBP2) was 3.28 ± 0.01 µM, the Ki (recombinant OfurPBP2) was 2.77 ± 0.01 µM and the IC50 (recombinant OfurPBP3) was 2.64 ± 0.15 µM. The Ki (recombinant OfurPBP3) was 1.97 ± 0.11 µM, the IC50 (OfurPBP3 mutant M2: F12S) was greater than 6 µM and the IC50 [2] was greater than 6 µM. The IC50 (recombinant OfurPBP4) was 2.31 ± 0.57 µM, the Ki (recombinant OfurPBP4) was 2.13 ± 0.53 µM and the “binding to all five OfurPBPs (in words)” value [3] was “relatively high affinities”.
